Assay results from patent US8957085B2, “Carboxamide bioisosteres of opiates” (Rensselaer Polytechnic Institute, priority 2010, dated 2015).

Assays:
human κ opioid receptor = human κ opioid receptor (Homo sapiens, UniProt P41145); experiment: biochemical
human δ opioid receptor = human δ opioid receptor (Homo sapiens, UniProt P41143); experiment: Opioid receptor binding assay, [3H]naltrindole (δ); conditions: Ki [3H]Naltrindole (δ), membranes of CHO cells expressing human δ opioid receptor; 0.2 nM [3H]naltrindole; mean ± S.E.
Sequence of human δ opioid receptor (P41143 whole entry): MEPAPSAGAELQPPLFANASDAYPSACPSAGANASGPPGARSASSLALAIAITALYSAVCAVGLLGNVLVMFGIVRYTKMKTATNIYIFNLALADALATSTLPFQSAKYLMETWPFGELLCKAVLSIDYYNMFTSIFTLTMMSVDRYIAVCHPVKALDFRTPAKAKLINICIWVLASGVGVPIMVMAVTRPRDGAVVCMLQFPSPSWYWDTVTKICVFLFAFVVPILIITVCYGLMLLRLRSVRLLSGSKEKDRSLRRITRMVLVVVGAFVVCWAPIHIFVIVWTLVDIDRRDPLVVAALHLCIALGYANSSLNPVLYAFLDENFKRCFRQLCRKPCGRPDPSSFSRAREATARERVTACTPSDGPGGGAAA

human μ opioid receptor = human μ opioid receptor (Homo sapiens, UniProt P35372); experiment: Opioid receptor binding assay, [3H]DAMGO (μ)
Sequence of human μ opioid receptor (P35372 whole entry): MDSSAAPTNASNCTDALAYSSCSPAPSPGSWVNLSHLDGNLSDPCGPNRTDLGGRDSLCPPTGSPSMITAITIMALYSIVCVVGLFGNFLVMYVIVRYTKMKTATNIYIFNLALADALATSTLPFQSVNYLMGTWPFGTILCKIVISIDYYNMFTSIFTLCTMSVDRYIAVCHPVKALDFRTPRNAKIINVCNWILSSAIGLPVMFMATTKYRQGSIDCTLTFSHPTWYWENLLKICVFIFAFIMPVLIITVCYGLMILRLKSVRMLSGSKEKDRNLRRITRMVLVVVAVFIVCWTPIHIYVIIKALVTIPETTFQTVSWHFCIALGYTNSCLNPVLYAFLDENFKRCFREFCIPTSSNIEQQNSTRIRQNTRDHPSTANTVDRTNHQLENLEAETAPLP

[1] = 1 mg/kg ip in mice; cited from earlier work

Sequence of human κ opioid receptor (P41145 whole entry): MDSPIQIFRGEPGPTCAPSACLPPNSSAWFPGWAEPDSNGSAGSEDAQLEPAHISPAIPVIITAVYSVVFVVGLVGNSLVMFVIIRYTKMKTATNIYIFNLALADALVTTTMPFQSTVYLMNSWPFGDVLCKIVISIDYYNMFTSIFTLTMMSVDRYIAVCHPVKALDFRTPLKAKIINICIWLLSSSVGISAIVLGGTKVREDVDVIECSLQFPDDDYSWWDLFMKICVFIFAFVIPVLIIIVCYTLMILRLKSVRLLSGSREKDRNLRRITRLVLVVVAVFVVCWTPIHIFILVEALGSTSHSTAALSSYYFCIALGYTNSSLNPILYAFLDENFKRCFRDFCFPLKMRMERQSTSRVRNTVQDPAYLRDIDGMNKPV

| SMILES | Ki (human κ opioid receptor) [nM] | Ki (human δ opioid receptor) [nM] | Ki (human μ opioid receptor) [nM] | duration of action (antinociception) [1] [h] |
| --- | --- | --- | --- | --- |
| CC1C2Cc3ccc(C(=O)NCCc4ccc(-c5ccc(O)cc5)cc4)cc3C1(C)CCN2CC1CC1 (racemic) [Compound 1] | 0.49 ± 0.011 | 0.81 ± 0.12 |  |  |
| COc1ccc(-c2ccc(CCNC(=O)c3ccc4c(c3)C3(C)CCN(CC5CC5)C(C4)C3C)cc2)cc1C (racemic) [Compound 2] |  | 1.5 ± 0.14 |  |  |
| COc1ccc(-c2ccc(CCNC(=O)c3ccc4c(c3)C3(C)CCN(CC5CC5)C(C4)C3C)cc2)c(C)c1 (racemic) [Compound 3] | 1.3 ± 0.11 | 1.1 ± 0.18 | 0.23 ± 0.0056 |  |
| CCOc1ccc(-c2ccc(CCNC(=O)c3ccc4c(c3)C3(C)CCN(CC5CC5)C(C4)C3C)cc2)cc1 (racemic) [Compound 4] | 3.3 ± 0.32 | 3.4 ± 0.039 |  |  |
| CC(C)Oc1ccc(-c2ccc(CCNC(=O)c3ccc4c(c3)C3(C)CCN(CC5CC5)C(C4)C3C)cc2)cc1 (racemic) [Compound 5] |  | 1.9 ± 0.21 | 0.23 ± 0.041 |  |
| CC(C)Oc1cccc(-c2ccc(CCNC(=O)c3ccc4c(c3)C3(C)CCN(CC5CC5)C(C4)C3C)cc2)c1 (racemic) [Compound 6] | 2.4 ± 0.25 | 3.9 ± 1.4 | 0.43 ± 0.041 |  |
| CC(C)Oc1ccccc1-c1ccc(CCNC(=O)c2ccc3c(c2)C2(C)CCN(CC4CC4)C(C3)C2C)cc1 (racemic) [Compound 7] | 1.8 ± 0.17 | 0.55 ± 0.025 |  |  |
| CC1C2Cc3ccc(C(=O)NCCc4ccc(-c5ccc6c(c5)OCO6)cc4)cc3C1(C)CCN2CC1CC1 (racemic) [Compound 8] | 0.73 ± 0.049 | 1 ± 0.12 |  |  |
| CC1C2Cc3ccc(C(=O)NCCc4ccc(-c5ccc(C#N)cc5)cc4)cc3C1(C)CCN2CC1CC1 (racemic) [Compound 9] | 1 ± 0.095 | 3 ± 0.11 | 0.017 ± 0.00075 |  |
| CC1C2Cc3ccc(C(=O)NCCc4ccc(-c5ccc(C=O)cc5)cc4)cc3C1(C)CCN2CC1CC1 (racemic) [Compound 10] | 1.8 ± 0.038 | 2.5 ± 0.12 | 0.002 ± 0.00029 |  |
| C[C@H]1C2Cc3ccc(C(=O)NCCc4ccc(-c5ccc(C(N)=O)cc5)cc4)cc3[C@@]1(C)CCN2CC1CC1 (racemic) [Compound 34] | 0.91 ± 0.066 | 1 ± 0.018 | 0.0052 ± 0.00055 |  |
| C[C@H]1C2Cc3ccc(C(=O)NCCc4ccc(-c5ccc(C(=O)O)cc5)cc4)cc3[C@@]1(C)CCN2CC1CC1 (racemic) [Compound 35] | 55 ± 4.1 | 68 ± 9 | 2.3 ± 0.16 |  |
| COC(=O)c1ccc(-c2ccc(CCNC(=O)c3ccc4c(c3)[C@@]3(C)CCN(CC5CC5)C(C4)[C@@H]3C)cc2)cc1 (racemic) [Compound 36] | 1.1 ± 0.13 | 1.5 ± 0.062 | 0.0091 ± 0.00071 |  |
| CC1C2Cc3ccc(C(=O)NCCc4ccc(-c5ccc(O)cc5)cc4)cc3C1(C)CCN2CC1CC1 (single isomer, unassigned) [Compound 1A] | 0.36 ± 0.018 | 0.78 ± 0.05 |  |  |
| C[C@H]1C2Cc3ccc(C(N)=O)cc3[C@@]1(C)CCN2CC1CC1 [Compound 8-CAC, 8-carboxamidocyclazocine] |  |  |  | 15 |
| C[C@H]1[C@H]2Cc3ccc(O)cc3[C@]1(C)CCN2CC1CC1 [cyclazocine] |  |  |  | 2 |
